One assay relates to L1210. Kind of assay: Cytotoxicity against mouse L1210 cells after 48 hrs by […] assay. Conditions: L1210, 48 h. It counts as functional, cell-based.
Assay [1] deals with P388. Kind of assay: Antitumor activity against mouse P388 cells implanted in B6D2F1 mouse assessed as median survival time at 0.78 mg/kg, ip relative to control. It counts as functional. Conditions: route intraperitoneal.
Assay [2] has as its system P388. Kind of assay: Antitumor activity against mouse P388 cells implanted in B6D2F1 mouse assessed as median survival time at 1.56 mg/kg, ip relative to control. It counts as functional. Conditions: route intraperitoneal.
Assay [3] relates to P388. Kind of assay: Antitumor activity against mouse P388 cells implanted in B6D2F1 mouse assessed as median survival time at 3.125 mg/kg, ip relative to control. The class given is functional. Conditions: route intraperitoneal.
For assay [4], the system named is P388. Kind of assay: Antitumor activity against mouse P388 cells implanted in B6D2F1 mouse assessed as median survival time at 6.25 mg/kg, ip relative to control. It counts as functional. Conditions: route intraperitoneal.
Assay [5] deals with P388. Kind of assay: Antitumor activity against mouse P388 cells implanted in B6D2F1 mouse assessed as median survival time at 12.5 mg/kg, ip relative to control. To be noted: route intraperitoneal. The class given is functional.
The subject of assay [6] is P388. Kind of assay: Antitumor activity against mouse P388 cells implanted in B6D2F1 mouse assessed as median survival time at 25 mg/kg, ip relative to control. It counts as functional. Conditions: route intraperitoneal.
The test system of assay [7] is P388. Kind of assay: Antitumor activity against mouse P388 cells implanted in B6D2F1 mouse assessed as median survival time at 200 mg/kg, ip relative to control. It counts as functional. Conditions: route intraperitoneal.

As a reminder, the IC50 is the concentration that inhibits the measured activity by half. Low readings indicate greater potency, high ones weaker potency. In the case of `COc1cc2c(c3c1c(=O)c1ccccc1n3C)C(=O)C(O)C(C)(C)O2` (racemic), the half-maximal inhibitory concentration (IC50) in the assay with L1210 was determined as 75.1 µM.
Same read-out and setting: the same measure for `COc1cc2c(c3c1c(=O)c1ccccc1n3C)C(=O)C(O)(CC(C)=O)C(C)(C)O2` (racemic): 22.5 µM.
For the compound `COc1cc2c(c3c1c(=O)c1ccccc1n3C)[C@@H](O)[C@H](OC(=O)CCl)C(C)(C)O2` (racemic), 11 µM corresponded to half-maximal inhibition with L1210 (IC50).
The same measure, in the same setting: under `COc1cc2c(c3c1c(=O)c1ccccc1n3C)[C@@H](O)[C@H](OC(C)=O)C(C)(C)O2` (racemic) stands 8.8 µM.
Usually T/C stands for the result in the treated group divided by that in the control group, in per cent. With `COc1cc2c(c3c1c(=O)c1ccccc1n3C)[C@@H](OC(C)=O)[C@H](OC(C)=O)C(C)(C)O2` (racemic), 8.7 µM corresponded to half-maximal inhibition with L1210 (IC50). The T/C stood at 122% with P388 [1]; 136% in the assay on P388 [2]; 155% in the assay with P388 [3]; 160% in the assay with P388 [4]; 181% with P388 [5]; 77% in the assay with P388 [6].
Consider `COc1cc2c(c3c1c(=O)c1ccccc1n3C)[C@@H](OC(C)=O)[C@@H](OC(C)=O)C(C)(C)O2` (relative stereo), for which, in the assay on P388 [6], the T/C was determined as 268%.
As for `COc1cc2c(c3c1c(=O)c1ccccc1n3C)C=CC(C)(C)O2` [ACRONINE], half-maximal inhibition in the assay on L1210 (IC50) required 25 µM. Moreover, the T/C in the assay with P388 [7] was determined as 125%.
